Source: US7442706B2, “Methods for treating sarcopenia with a growth hormone secretagogue” (priority 2006, dated 2008)
Entries after “also recorded” stand apart in the source; their conditions may differ. Marks after values point to notes of the source that are not given here.

Legend:
[1] = Body composition: body weight, FFM, fat mass, ASM (4-compartment model, DXA), AVF and thigh muscle (CT); type: in vivo, human; conditions: for Mean Change in FFM from Baseline, 4-C / Mean Change in FFM from Baseline, DXA: n = 43
Description: This example presents the 6 and 12 mo (pivotal) body composition data in all subjects studied in a 2-yr crossover study. A total of 65 healthy older [60-81 yr; BMI 26.1±3 (19-35) kg/m^2] men and women on and off HRT (hormone replacement therapy) received MK-677 (⅔ of each group) or placebo in Yr 1. Total body fat mass, % fat, and fat-free mass (FFM) were determined every 6 mo over 2 yr using a 4-compartment (4-C) model, as well as dual energy x-ray absorptiometry (DXA, QDR 2000). 4-C model components: body weight and density (BodPod); total body water (D2O dilution); total bone mineral content (DXA). Data were analyzed by way of repeated measure ANCOVA with baseline response as the model covariate. P values and confidence limits were derived based on a Bonferroni two-sided experiment wise error rate 0.05; data shown are mean (upper and lower Bonferroni 95% CL).
Sixty-five healthy men and women (±HRT) ages 60-81 years were enrolled in a 2-year study of MK-677 (25 mg p.o. daily) or placebo. In addition to GH and IGF-I, the primary endpoints were fat-free mass (FFM), by 4-compartment model and DXA, and abdominal visceral fat (AVF) by CT. Secondary endpoints included isokinetic strength, function and quality of life (QoL); all endpoints were assessed at baseline and every 6 months, with frequent monitoring for adverse effects.
This NIH-funded study was approved by the General Clinical Research Center (GCRC) and the University of Virginia Institutional Review Boards. All subjects gave written informed consent. A two-year, double-blind, placebo-controlled modified crossover trial of once-daily administration of an oral GH secretogogue (MK-677, 25 mg) to healthy older adults was performed.
During the first year, subjects were randomized to MK-677 or placebo treatment. In each of 3 groups (23 men, 25 women on hormone replacement therapy (HRT) and 17 women not on HRT), ⅔ received MK-677 and ⅓ received placebo. At the end of year 1, the subjects who received placebo were switched to MK-677 treatment (N= 2/0 in year 2); subjects who received MK-677 for the first year were randomized to continue MK-677 (N=20) or to placebo (N=19).
Body Composition. The effects of treatment on FFM and total body fat were evaluated by two independent methods: a 4-compartment (4-C) model (5); and dual x-ray absorptiometry (DXA). All subjects were scanned on the same Hologic QDR-2000 in pencil beam mode as previously described (6); all scans were read by a single observer (J. L. C.). Total appendicular skeletal muscle (lean) mass (TASM) from DXA was measured as the sum of the lean soft-tissue masses for the arms and the legs as described by Heymsfield et al. (7). Total and abdominal visceral fat (AVF), and subcutaneous fat areas (cm^2), as well as thigh muscle were measured by computed tomography (CT) ((8) and all scans were read by a single observer (J. L. C.)
The two primary endpoints for this study are: 1) FFM, which is an important determinant of functional ability; and 2) AVF, which is the most important fat depot for cardiovascular risk. Based on a sample size of 60 subjects (40 randomized to MK-677 and 20 to placebo in year 1), this cross-over study was designed to have at least 90% power to detect a 4.1% or greater between-group difference in the change in percent FFM, with the same power to detect a 12.6% or greater between-group difference in the change in AVF (cm^2) after the initial 12-months of treatment. The sample size formula for two-sample Student's t-test was used to conduct the power analysis. The standard deviations used in the power calculations were 4.4% for percent FFM and 14.1% for AVF. Both power calculations reflect the power of a two-sided test with a type I error rate of 0.05.
The primary outcome data for the 6- and 12-month changes in FFM and AVF as well as for IGF-I and GH were analyzed via repeated measures ANCOVA. […]

IGF-I = assay: Serum total IGF-I levels (Immulite 2000) in the 2-year placebo-controlled trial; type: in vivo, human; conditions: for IGF-I levels after withdrawal of MK-677 or switch to placebo: after crossover to placebo in year 2 or 3 and 6 months after withdrawal
Description: Sixty-five healthy men and women (±HRT) ages 60-81 years were enrolled in a 2-year study of MK-677 (25 mg p.o. daily) or placebo. In addition to GH and IGF-I, the primary endpoints were fat-free mass (FFM), by 4-compartment model and DXA, and abdominal visceral fat (AVF) by CT. Secondary endpoints included isokinetic strength, function and quality of life (QoL); all endpoints were assessed at baseline and every 6 months, with frequent monitoring for adverse effects. This NIH-funded study was approved by the General Clinical Research Center (GCRC) and the University of Virginia Institutional Review Boards. All subjects gave written informed consent. A two-year, double-blind, placebo-controlled modified crossover trial of once-daily administration of an oral GH secretogogue (MK-677, 25 mg) to healthy older adults was performed. During the first year, subjects were randomized to MK-677 or placebo treatment. In each of 3 groups (23 men, 25 women on hormone replacement therapy (HRT) and 17 women not on HRT), ⅔ received MK-677 and ⅓ received placebo. At the end of year 1, the subjects who received placebo were switched to MK-677 treatment (N= 2/0 in year 2); subjects who received MK-677 for the first year were randomized to continue MK-677 (N=20) or to placebo (N=19). Assays and Insulin Sensitivity. Plasma glucose was measured on a Beckman analyzer and insulin and total IGF-I were measured in the GCRC Core Laboratory on an Immulite 2000 (Diagnostic Products Corporation, Los Angeles, Calif.). Additional safety laboratory tests were performed by standard methods in the UVA Clinical Laboratories. Fasting insulin and glucose were used to estimate insulin sensitivity by the Quicki method (4). The primary outcome data for the 6- and 12-month changes in FFM and AVF as well as for IGF-I and GH were analyzed via repeated measures ANCOVA. The FFM and AVF data were analyzed on the same scale as they were measured, while the IGF-I and GH data were transformed to the natural logarithmic scale before conducting the statistical analyses so that the variance and normality assumptions of the linear model were not violated. Since the FFM and AVF data were analyzed on the same scale as initially measured, the 6- and 12-month changes are reported as a difference between arithmetic means; changes in IGF-I and GH data analyzed on the natural algorithmic scale are reported as a ratio of geometric means.

[2] = 6 mo, 25 mg p.o. daily, mean (Bonferroni 95% CL)
[3] = 12 mo, 25 mg p.o. daily, methanesulfonate

With `CC(C)(N)C(=O)N[C@H](COCc1ccccc1)C(=O)N1CCC2(CC1)CN(S(C)(=O)=O)c1ccccc12.CS(=O)(=O)O` [MK-677, N-[1(R)-[(1,2-dihydro-1-methanesulfonylspiro[3H-indole-3,4′-piperidin]-1′-yl)carbonyl]-2-(phenylmethyloxy)ethyl]-2-amino-2-methylpropanamide methanesulfonate] the “increase in appendicular skeletal muscle compared to placebo” value ([1]; 25 mg orally daily, over the first year) was 1.6 kg, the “Total ASM change from baseline and vs. placebo” value ([1]; 6 and 12 months, DXA) was “significantly increased” and the “Estimated Difference in Change (MK-677 vs Placebo), Body Wt” value ([1]; 6 mo, 25 mg p.o. daily) was 2.3 (0.8-3.8)*** kg. The “Estimated Difference in Change (MK-677 vs Placebo), FFM, 4-C” value ([1]; 6 mo, 25 mg p.o. daily) was 1.28 (0.21-2.36)* kg, the “Estimated Difference in Change (MK-677 vs Placebo), FFM, DXA” value ([1]; 6 mo, 25 mg p.o. daily) was 1.15 (0.28-2.02)** kg and the “Mean Change in FFM from Baseline, 4-C” value [1, 2] was 1.12 (0.48-1.75) kg. For the same compound, the “Mean Change in FFM from Baseline, DXA” value [1, 2] was 0.98 (0.47-1.48) kg, the “Total body weight increase” value ([1]; 6 months, 25 mg p.o. daily, placebo 0.7 kg) was 3.1 kg and the “Estimated Difference in Change (MK-677 vs Placebo), Body Wt” value ([1]; 12 mo, 25 mg p.o. daily) was 1.9 (0.5-3.4)** kg. For the same compound, the “Estimated Difference in Change (MK-677 vs Placebo), FFM, 4-C” value ([1]; 12 mo, 25 mg p.o. daily) was 1.64 (0.56-2.71)** kg, the “Estimated Difference in Change (MK-677 vs Placebo), FFM, DXA” value ([1]; 12 mo, 25 mg p.o. daily) was 1.54 (0.67-2.41)*** kg and the “Mean Change in FFM from Baseline, 4-C” value [1, 3] was 1.27 (0.64-1.90) kg. The “Mean Change in FFM from Baseline, DXA” value [1, 3] was 1.09 (0.58-1.59) kg, the “increase in thigh muscle area measured by CT vs. placebo” value ([1]; 12 months) was “did not reach statistical significance” and the “Total body weight increase” value ([1]; 12 months, 25 mg p.o. daily, placebo 0.8) was 2.7 kg. For the same compound, the “total body fat increase from baseline, DXA” value ([1]; 12 months, 25 mg p.o. daily, placebo 1.1 kg) was 1.8 kg, the “mean AVF increase from baseline, CT” value ([1]; 12 months, 25 mg p.o. daily, placebo 4.2 cm^2) was 8.4 cm^2 and the “Subcutaneous fat change from baseline” value ([1]; 12 months, CT) was “significantly increased from baseline”. For the same compound, the “leg ASM change vs. baseline” value ([1]; 12 months, DXA) was “increased significantly”, the “total body fat, difference between MK-677 and placebo groups” value ([1]; 12 months, DXA) was “no significant difference between groups” and the “increase in FFM of the first year, in subjects treated for 2 yr” value ([1]; Yr 2, n=17, descriptive data) was “maintained”. The “increase in FFM in subjects switched from MK-677 to placebo” value ([1]; yr 2, descriptive data) was “lost”, the “IGF-I levels after withdrawal of MK-677 or switch to placebo” value (IGF-I; listed as Mk-677, methanesulfonate) was “fell to baseline levels” and the “IGF-I levels after withdrawal of MK-677 or switch to placebo” value (IGF-I; methanesulfonate) was “returned to pre-treatment levels”. The “fold increase in IGF-I levels” value (IGF-I; at 6 and 12 months, 25 mg p.o. daily, N=43) was 1.5 fold and the “IGF-I levels relative to normal range for young adults aged 21-25 (116-358 μg/L)” value (IGF-I; first year, 25 mg p.o. daily, methanesulfonate) was “levels in the young adult normal range; also recorded: increased into the normal range for young adults”.
